Measurements: patent EP0007019A1, “5-Phenyl-pyrazole derivatives and their salts, processes for their preparation and medicines containing them” (Kali-Chemie Pharma GmbH, priority 1978, dated 1980)
Like-named read-outs stand apart in the source and are kept apart here.

What was measured:
Assay type in all cases: in vivo
[1] = tested on: unbehandelten Ratte; assay: Determination of triglyceride lowering in the untreated rat over 4 days; conditions: po, 96 h, 200 mg/kg per Magensonde, 4 Tage, serum triglycerides, percent versus control, 10 animals per group, read-out: Triglyceridsenkung in %
Procedure: Die Verbindungen wurden auf triglyceridsenkende Eigenschaften an der unbehandelten Ratte über einen Zeitraum von 4 Tagen untersucht. Die Substanzen wurden in der Dosierung von 200 mg/kg per Magensonde in 5 ml 1%-iger Traganth-Lösung appliziert. Die Blutentnahme erfolgte im Ätherrausch aus dem retrobulbären Venenplexus. Die Serumtriglyceride wurden nach Eggstein und Kreutz (Klin. Wschr. 44, 262 (1966)) bestimmt. Jede Gruppe bestand aus 10 Tieren. Die statistische Prüfung erfolgte nach dem Student-t-Test. Als Signifikanzgrenze diente p ≤0,01.
Die Triglyceridsenkung durch die untersuchten Substanzen in Prozent gegenüber der Kontrolle ist der Tabelle 2 zu entnehmen.

[2] = Acute 7-day toxicity after a single administration (LD50, probit analysis); conditions: in vivo, single administration, fasted NMRI mouse, 7 days
From the text: (§1) Die akute 7-Tage-Toxizität wurde nach einmaliger Applikation an der weißen, nüchternen NMRI-Maus bestimmt.

[3] = tested on: Sprague-Dawley-Ratten mit diätetischer Hyperlipidämie; assay: Lipid-lowering effect in rats with dietary hyperlipidaemia, 4 weeks p.o., compared with Clofibrat; liver weight; conditions: for Serum Gesamt-Cholesterin / Serum Triglyceride / Lebergewicht: 4 Wochen; for Serum Gesamt-Cholesterin: 20 animals per group, Kontrolle 15,2 ± 2,4; for Serum Triglyceride: Kontrolle 1,04 ± 0,34; for Lebergewicht: Kontrolle 7,3 ± 0,7
Procedure: Die Testsubstanz wurde über einen Zeitraum von 4 Wochen in Dosierungen von 100 und 200 mg/kg Körpergewicht p.o. täglich per Magensonde in 10 ml einer 1%-igen Traganth-Lösung verabreicht. Clofibrat wurde entsprechend in Dosierungen von 100 und 200 mg/kg gegeben. Die Kontrolltiere erhielten 10 ml der Trägerflüssigkeit Traganth/kg Körpergewicht per Magensonde.
Jede Gruppe bestand aus 20 Tieren; das Gewicht der Leber wurde festgestellt und verglichen.
Die Blutentnahme erfolgte im Ätherrausch aus dem retrobulbären Venenplexus.
Ausgeführt wurden Varianzanalyse und Student-t-Test. Als Signifikanzgrenze diente p≤0,01.

[4] = tested on: NMRI-Maus; assay: Acute 7-day toxicity after a single administration (LD50, probit analysis); conditions: for Toxizität: statement in words, test not specified
From the text: as §1

[5] = tested on: Versuchstieren; assay: PCA test (passive cutaneous anaphylaxis reaction), peroral
From the text: Die neuen Verbindungen eignen sich insbesondere aufgrund ihrer oralen antianaphylaktischen Wirksamkeit zur Behandlung von allergischen Reaktionen.

[6] = 100 mg/kg p.o. täglich, mean ± spread

CC(C)(Oc1cc(-c2ccc(Cl)cc2)n(Cc2ccccc2)n1)C(N)=O [Substanz Nr. 5, 1-Benzyl-5-(4-chlorphenyl)-3-(2-aminocarbonyl-propyl-2-oxy)-pyrazol]
inhibition in vivo at 200 mg/kg [1]: 15%

CCOC(=O)C(C)(C)Oc1ccc(Cl)cc1 [Clofibrat, a-(p-Chlorphenoxy)-a-methyl-propionsäureäthylester, reference compound]
LD50 at 168 h ([2]; ip, read-out: LD50 i.p.): 566 mg/kg
LD50 at 168 h ([2]; po, read-out: LD50 p.o.): > 1470 mg/kg
Serum Gesamt-Cholesterin [3, 6]: 6,9 ± 2,1 mmol/l
Serum Triglyceride ([3]; 100 mg/kg p.o. täglich): 0,90 ± 0,16 mmol/l
Lebergewicht ([3]; 100 mg/kg p.o. täglich): 8,2 ± 0,9 g/100 g
Serum Gesamt-Cholesterin ([3]; 200 mg/kg p.o. täglich): 5,9 ± 1,7 mmol/l
Serum Triglyceride ([3]; 200 mg/kg p.o. täglich): 0,86 ± 0,66 mmol/l
Lebergewicht ([3]; 200 mg/kg p.o. täglich): 8,2 ± 0,7 g/100 g

CC(C)(Oc1cc(-c2ccc(Cl)cc2)[nH]n1)C(=O)O [5-(4-Chlorphenyl)-3-(2-hydroxycarbonylpropyl-2-oxy)-pyrazol]
Toxizität [4]: geringer Toxizität
perorale antianaphylaktische Wirksamkeit [5]: ausgeprägte perorale antianaphylaktische Wirksamkeit

CC(C)(Oc1cc(-c2ccccc2)[nH]n1)C(N)=O [Substanz Nr. 1, 5-Phenyl-3-(2-aminocarbonylpropyl-2-oxy)-pyrazol]
inhibition in vivo at 200 mg/kg [1]: 15%

CC(C)(Oc1cc(-c2cccc(Cl)c2)n(-c2ccccc2)n1)C(N)=O [Substanz Nr. 3, 1-Phenyl-5-(3-chlorphenyl)-3-(2-aminocarbonyl-propyl-2-oxy)-pyrazol]
inhibition in vivo at 200 mg/kg [1]: 30%

CC(C)(Oc1cc(-c2ccc(Cl)cc2)n(-c2ccccc2)n1)C(N)=O [Substanz Nr. 2, 1-Phenyl-5-(4-chlorphenyl)-3-(2-aminocarbonyl-propyl-2-oxy)-pyrazol]
LD50 at 168 h ([2]; ip, read-out: LD50 i.p.): > 100 mg/kg
LD50 at 168 h ([2]; po, read-out: LD50 p.o.): > 1470 mg/kg
inhibition in vivo at 200 mg/kg [1]: 20%

CCOC(=O)C(C)(C)Oc1cc(-c2ccccc2)[nH]n1 [Substanz Nr. 7, 5-Phenyl-3-(2-äthoxycarbonylpropyl-2-oxy)-pyrazol]
inhibition in vivo at 200 mg/kg [1]: 25%

CCOC(=O)C(C)(C)Oc1cc(-c2ccc(Cl)cc2)n(-c2ccccc2)n1 [Substanz Nr. 6, 1-Phenyl-5-(4-chlorphenyl)-3-(2-äthoxycarbonyl-propyl-2-oxy)-pyrazol]
inhibition in vivo at 200 mg/kg [1]: 20%

CC(C)(Oc1cc(-c2ccccc2)n(-c2ccccc2)n1)C(=O)O [Substanz Nr. 8, 1,5-Diphenyl-3-(2-hydroxycarbonylpropyl-2-oxy)-pyrazol]
inhibition in vivo at 200 mg/kg [1]: 30%

1,5-Diphenyl-3-(2-äthoxycarbonylpropyl-2-oxy)-pyrazol [Beispiel 1]
LD50 i.p. ([4]; i.p., single administration, fasted NMRI mouse, 7 days): 684 mg/kg
LD50 p.o. ([4]; p.o., single administration, fasted NMRI mouse, 7 days): >1470 mg/kg

CC(C)(Oc1cc(-c2ccccc2)[nH]n1)C(=O)O [5-Phenyl-3-(2-hydroxycarbonylpropyl-2-oxy)-pyrazol]
Toxizität [4]: geringer Toxizität
perorale antianaphylaktische Wirksamkeit [5]: ausgeprägte perorale antianaphylaktische Wirksamkeit

CC(C)(Oc1cc(-c2ccccc2)n(-c2ccccc2)n1)C(N)=O [Substanz A, 1,5-Diphenyl-3-(2-aminocarbonylpropyl-2-oxy)-pyrazol]
LD50 at 168 h ([2]; ip, read-out: LD50 i.p.): 571 mg/kg
LD50 at 168 h ([2]; po, read-out: LD50 p.o.): > 1470 mg/kg
Serum Gesamt-Cholesterin [3, 6]: 6,8 ± 2,4 mmol/l
Serum Triglyceride ([3]; 100 mg/kg p.o. täglich): 0,83 ± 0,20 mmol/l
Lebergewicht ([3]; 100 mg/kg p.o. täglich): 7,2 ± 0,6 g/100 g
Serum Gesamt-Cholesterin ([3]; 200 mg/kg p.o. täglich): 5,5 ± 1,4 mmol/l
Serum Triglyceride ([3]; 200 mg/kg p.o. täglich): 0,70 ± 0,16 mmol/l
Lebergewicht ([3]; 200 mg/kg p.o. täglich): 7,4 ± 0,7 g/100 g
Veränderungen der Leber (Zunahme des Lebergewichtes, Leberzellvergrößerung) ([3]; 4 Wochen p.o., 100 and 200 mg/kg): keinerlei Veränderungen der Leber

CC(C)(Oc1cc(-c2ccc(Cl)cc2)[nH]n1)C(N)=O [Substanz Nr. 4, 5-(4-Chlorphenyl)-3-(2-aminocarbonylpropyl-2-oxy)-pyrazol]
inhibition in vivo at 200 mg/kg [1]: 15%
